Consider 3 compounds from patent EP4582423A1, “NOVEL TRICYCLIC DERIVATIVE COMPOUND AND USES THEREOF” (Hanmi Pharm. Co., Ltd., priority 2022, dated 2024).

This assay concerns HCT116 MTAP-/- cells. In words: Cell growth inhibition test (SRB staining). It counts as cell-based. Particulars: Homo sapiens, HCT-116, 144 h; HCT116 MTAP-/- cells, 0.64 nM - 2,000 nM, 6 dose points, 6 days, SRB staining, absorbance at 540 nm; read-out: HCT116 MTAP-/- cell growth inhibition (GI50). On the procedure: The synthetic compounds above were tested for cell growth inhibition against HCT116 cells.
HCT116 MTAP-/- (homozygous knockout of MTAP gene in HCT116 MTAP-WT cells by CRISPER/Cas9 method) cells were maintained in RPMI1640 medium containing 10 % FBS and 1 % penicillin-streptomycin. Approximately 5×10^2 cells were seeded in a 96-well plate and treated with a test compound. (0.64 nM - 2,000 nM, 6 dose points for HCT116 MTAP-/- cells for 5x and 6 days) cell growth was measured by SRB staining and absorbance was detected at 540 nm on a Synergy™ NEO microplate reader. The 50 % growth inhibition value (GI50) of the cell line was calculated using GraphPad Prism V9 software.
For orientation: Sulforhodamine B stains cellular protein and so reports cell mass.
Take `COc1ccc(Cc2nc3c(=O)n(-c4cccnc4C(F)(F)F)c4cc(Cl)ccc4c3n2C)cc1` [Compound 23, 7-chloro-2-(4-methoxybenzyl)-1-methyl-5-(2-(trifluoromethyl)pyridin-3-yl)-1,5-dihydro-4H-imidazo[4,5-c]quinolin-4-one]: the GI50 was in the range of 0.1 to 0.5 µM.
The same measure for `COc1ccc(Cc2nc3c(=O)n(-c4ccc(OC(F)F)cc4)c4nc(C(F)(F)F)ccc4c3n2C)cc1` [Compound 56, 5-(4-(Difluoromethoxy)phenyl)-2-(4-methoxybenzyl)-1-methyl-7-(trifluoromethyl)-1,5-dihydro-4H-imidazo[4,5-c][1,8]naphthyridin-4-one]: more than 1 µM; for `COc1ccc(Cc2nc3c(=O)n(-c4cccnc4C)c4cc(C(F)(F)F)ccc4c3n2C)cc1` [Compound 27, 2-(4-methoxybenzyl)-1-methyl-5-(2-methylpyridin-3-yl)-7-(trifluoromethyl)-1,5-dihydro-4H-imidazo[4,5-c]quinolin-4-one]: less than 0.1 µM.
